According to patent US20240025858A1, “CANNABINOID DERIVATIVES AS […] ACTIVE COMPOUNDS AND METHOD OF PREPARATION THEREOF” (GW Research Limited, priority 2020, published 2024):

Columns and labels:
[1] = test system: mouse model of generalised seizure; assay: mini-MEST (maximal electroshock seizure threshold test, minimal sample sizes) in the mouse; details: for change in vivo at 50 mg/kg / change in vivo at 5 mg/kg: Mus musculus, ip, change in CC50; for change in vivo at 50 mg/kg: 0.5 h, read-out: % change from vehicle, 50 mg/kg i.p., 30 min post dose; for change in vivo at 5 mg/kg: 0.25 h, read-out: % change from vehicle, 5 mg/kg i.p., 15 min post dose
Protocol: In the MEST test the ability of a drug to alter the seizure threshold current required to induce hind limb tonic extensor convulsions is measured according to an “up and down” method of shock titration (Kimball et al., 1957).
The ability of a test compound to alter the stimulus intensity, expressed as current (mA), required to induce the presence of tonic hind limb extensor convulsions, is assessed in the MEST.
Naïve mice were acclimatised to the procedure room in their home cages for up to 7 days, with food and water available ad libitum.
All animals were weighed at the beginning of the study and randomly assigned to treatment groups based on a mean distribution of body weight across groups.
The first animal within a treatment group was given a shock at the expected or estimated CC50 current. For subsequent animals, the current was lowered or raised depending on the convulsions outcome from the preceding animal in log scale intervals.
Data generated from each treatment group were used to calculate the CC50 ±SEM values for the treatment group.
The test compounds used were 1, 2, 3, 4 and 5. Test compounds were administered at 5-50 mg/kg (i.p.) in a 1:2:17 ethanol:solutol:saline formulation.
The data for each treatment group were recorded as the number of +'s and 0's at each current level employed and this information is then used to calculate the CC50 value (current required for 50% of the animals to show seizure behaviour) ±standard error.
Test compound effects were also calculated as percentage change in CC50 from the vehicle control group.
The test compounds used were 12, 42 and 43. Test compounds were administered at 5-50 mg/kg (i.p.) in a 1:2:17 ethanol:solutol:saline formulation.
The test compounds used were 6, 13, 22, 26, 28, 33, 38 and 46. Test compounds were administered at 5-50 mg/kg (i.p.) in a 1:2:17 ethanol:solutol:saline formulation.
The test compound used was 36. Test compound was administered at 5 and 50 mg/kg (i.p.) in a 1:2:17 ethanol:solutol:saline formulation.

[2] = test system: mouse model of generalised seizure; assay: MEST (maximal electroshock seizure threshold) test in the mouse; details: for % change from vehicle: change in CC50
Protocol: The efficacy of the cannabinoid derivative of 1 was tested in a mouse model of generalised seizure, the maximal electroshock seizure threshold (MEST) test.
The protocol according to Example 2 was followed, with the current lowered or raised in intervals of 5 mA instead of log scale intervals.

[3] = 50 mg/kg i.p., test 30 min post dose
[4] = 5 mg/kg i.p., test 15 min post dose

SMILES | CC50 +/− SEM [1, 3] [mA] | change in vivo at 50 mg/kg [1] [%] | CC50 +/− SEM [1, 4] [mA] | change in vivo at 5 mg/kg [1] [%] | other results
C=C(C)[C@@H]1CCC(C)=C[C@H]1c1c(O)cc(-c2cnn(CC(C)(C)O)c2)cc1O [Compound 1, (1′R,2′R)-4-(1-(2-Hydroxy-2-methylpropyl)-1H-pyrazol-4-yl)-5′-methyl-2′-(prop-1-en-2-yl)-1′,2′,3′,4′-tetrahydro-[1,1′-biphenyl]-2,6-diol] | 119.5 | 388 | – | – | % change from vehicle ([2]; 1 mg/kg i.p., 15 min post dose): 10%; CC50 +/− SEM ([2]; 1 mg/kg i.p., test 15 min post dose): 28.5 mA; % change from vehicle ([2]; 5 mg/kg i.p., 15 min post dose): 21%; CC50 +/− SEM [2, 4]: 31.5 mA; % change from vehicle ([2]; 50 mg/kg i.p., 30 min post dose): 213%; CC50 +/− SEM [2, 3]: 81.5 mA
C=C(C)[C@@H]1CCC(C)=C[C@H]1c1c(O)cc(-c2cnn(CCO)c2)cc1O [Compound 2, (1′R,2′R)-4-(1-(2-Hydroxyethyl)-1H-pyrazol-4-yl)-5′-methyl-2′-(prop-1-en-2-yl)-1′,2′,3′,4′-tetrahydro-[1,1′-biphenyl]-2,6-diol] | <35.0 | < 40 | 32.5 | 30 | –
C=C(C)[C@@H]1CCC(C)=C[C@H]1c1c(O)cc(-c2cn(C)nc2C)cc1O [Compound 3, (1′R,2′R)-4-(1,3-Dimethyl-1H-pyrazol-4-yl)-5′-methyl-2′-(prop-1-en-2-yl)-1′,2′,3′,4′-tetrahydro-[1,1′-biphenyl]-2,6-diol] | 62.5 | 150 | 27.5 | 10 | –
C=C(C)[C@@H]1CCC(C)=C[C@H]1c1c(O)cc(-c2cn(C)nn2)cc1O [Compound 4, (1′R,2′R)-5′-Methyl-4-(1-methyl-1H-1,2,3-triazol-4-yl)-2′-(prop-1-en-2-yl)-1′,2′,3′,4′-tetrahydro-[1, 1′-biphenyl]-2,6-diol] | 70.5 | 213 | 28.3 | 26 | –
C=C(C)[C@@H]1CCC(C)=C[C@H]1c1c(O)cc(-c2cnn(CCO)c2C)cc1O [Compound 5, (1′R,2′R)-4-(1-(2-Hydroxyethyl)-5-methyl-1H-pyrazol-4-yl)-5′-methyl-2′-(prop-1-en-2-yl)-1′,2′,3′,4′-tetrahydro-[1,1′-biphenyl]-2,6-diol] | 60.5 | 169 | – | – | –
C=C(C)[C@@H]1CCC(C)=C[C@H]1c1c(O)cc(-c2cnn(CCN(C)C)c2)cc1O [Compound 6, (1′R,2′R)-4-(1-(2-(Dimethylamino)ethyl)-1H-pyrazol-4-yl)-5′-methyl-2′-(prop-1-en-2-yl)-1′,2′,3′,4′-tetrahydro-[1,1′-biphenyl]-2,6-diol] | <43 | < 76 | – | – | –
C=C(C)[C@@H]1CCC(C)=C[C@H]1c1c(O)cc(-c2ccc(OC)nc2)cc1O [Compound 12, (1′R,2′R)-4-(6-Methoxypyridin-3-yl)-5′-methyl-2′-(prop-1-en-2-yl)-1′,2′,3′,4′-tetrahydro-[1,1′-biphenyl]-2,6-diol] | >131 | > 394 | 25.0 | -6 | convulsions observed ([1]; 50 mg/kg, CC50 not reached): no animals had any convulsions
C=C(C)[C@@H]1CCC(C)=C[C@H]1c1c(O)cc(-c2cnn(CCN3CCOCC3)c2)cc1O [Compound 13, (1′R,2′R)-5′-Methyl-4-(1-(2-morpholinoethyl)-1H-pyrazol-4-yl)-2′-(prop-1-en-2-yl)-1′,2′,3′,4′-tetrahydro-[1,1′-biphenyl]-2,6-diol] | 37.2 | 58 | 25.0 | 6 | –
C=C(C)[C@@H]1CCC(C)=C[C@H]1c1c(O)cc(-c2cnn(CC(C)O)c2)cc1O (stereo partly drawn) [Compound 22, (1′R,2′R)-4-(1-(2-Hydroxypropyl)-1H-pyrazol-4-yl)-5′-methyl-2′-(prop-1-en-2-yl)-1′,2′,3′,4′-tetrahydro-[1,1′-biphenyl]-2,6-diol] | 66.0 | 149 | 33.0 | 25 | –
C=C(C)[C@@H]1CCC(C)=C[C@H]1c1c(O)cc(-n2cnc(C)n2)cc1O [Compound 26, (1′R,2′R)-5′-Methyl-4-(3-methyl-1H-1,2,4-triazol-1-yl)-2′-(prop-1-en-2-yl)-1′,2′,3′,4′-tetrahydro-[1,1′-biphenyl]-2,6-diol] | 75.0 | 233 | – | – | –
C=C(C)[C@@H]1CCC(C)=C[C@H]1c1c(O)cc(-c2cn(C)cn2)cc1O [Compound 28, (1′R,2′R)-5′-Methyl-4-(1-methyl-1H-imidazol-4-yl)-2′-(prop-1-en-2-yl)-1′,2′,3′,4′-tetrahydro-[1,1′-biphenyl]-2,6-diol] | 35.5 | 58 | 25.0 | 11 | –
C=C(C)[C@@H]1CCC(C)=C[C@H]1c1c(O)cc(-c2ncn(C)n2)cc1O [Compound 33, (1′R,2′R)-5′-Methyl-4-(1-methyl-1H-1,2,4-triazol-3-yl)-2′-(prop-1-en-2-yl)-1′,2′,3′,4′-tetrahydro-[1, 1′-biphenyl]-2,6-diol] | 53.5 | 138 | – | – | –
CC1=C[C@@H](c2c(O)cc(-c3cnn(C)c3)cc2O)[C@H](C(C)C)CC1 [Compound 36, (1′S,2′S)-2′-Isopropyl-5′-methyl-4-(1-methyl-1H-pyrazol-4-yl)-1′,2′,3′,4′-tetrahydro-[1,1′-biphenyl]-2,6-diol] | 70.5 | 176 | 29.0 | 14 | CC50 value compared to vehicle ([1]; 5 and 50 mg/kg i.p., between 15 and 30 minutes before the test): statistically significant
C=C(C)[C@@H]1CCC(C)=C[C@H]1c1c(O)cc(-c2cnn(C3COC3)c2)cc1O [Compound 38, (1′R,2′R)-5′-Methyl-4-(1-(oxetan-3-yl)-1H-pyrazol-4-yl)-2′-(prop-1-en-2-yl)-11,2′,3′,4′-tetrahydro-[1, 1′-biphenyl]-2,6-diol] | 79.5 | 200 | – | – | –
C=C(C)[C@@H]1CCC(C)=C[C@H]1c1c(O)cc(-c2ccn(C)c(=O)c2)cc1O [Compound 42, 4-((1′R,2′R)-2,6-dihydroxy-5′-methyl-2′-(prop-1-en-2-yl)-1′,2′,3′,4′-tetrahydro-[1,1′-biphenyl]-4-yl)-1-methylpyridin-2(1H)-one] | 67.5 | 132 | – | – | –
C=C(C)[C@@H]1CCC(C)=C[C@H]1c1c(O)cc(-c2cccnc2OC)cc1O [Compound 43, (1′R,2′R)-4-(2-methoxypyridin-3-yl)-5′-methyl-2′-(prop-1-en-2-yl)-1′,2′,3′,4′-tetrahydro-[1,1′-biphenyl]-2,6-diol] | 58.2 | 96 | – | – | –
C=C(C)[C@@H]1CCC(C)=C[C@H]1c1c(O)cc(N(C)c2cccnc2)cc1O [Compound 46, (1′R,2′R)-5′-Methyl-4-(methyl(pyridin-3-yl)amino)-2′-(prop-1-en-2-yl)-1′,2′,3′,4′-tetrahydro-[1, 1′-biphenyl]-2,6-diol] | 61.5 | 132 | – | – | –
CN1C(=O)CN=C(c2ccccc2)c2cc(Cl)ccc21 [Diazepam, diazepam, reference compound] | – | – | – | – | % change from vehicle ([2]; diazepam 2.5 mg/kg i.p., 30 min post dose): 224%
